Laboratory results reported in patent US20220213060A1, “Crystal Form of Quinazolinone Compound and Preparation Method Therefor” (Luoxin Healthcare Science and Technology Development …, priority 2019, published 2022).

How the values were obtained:
[1] = Hygroscopicity by dynamic vapor sorption (DVS); assay type: physicochemical; settings: 25° C. and 80% RH; listed as crystal form A of the compound represented by formula (I)
Method: 1.4 Dynamic Vapor Sorption (DVS) Method of the Present Disclosure
Instrument model: SMS DVS Advantage dynamic vapor sorption instrument
Detection conditions: 10-20 mg of sample was placed in a DVS sample tray for testing.
Detailed DVS parameters were as follows:
Equilibrium: dm/dt=0.01%/min: (shortest: 10 min, longest: 180 min)
Drying: drying at 0% RH for 120 min
RH (%) test gradient: 10%
RH (%) test gradient range: 0%-90%-0%
Hygroscopicity evaluation is classified as follows:
20 mg of the crystal form A of the compound represented by formula (I) was placed in the DVS sample tray for testing.

[2] = target: Mutant PI3Kα (E545K) (Homo sapiens, UniProt P42336, E545K); assay: In vitro enzymatic activity test, mutant PI3Kα (E545K); assay type: biochemical
Sequence of Mutant PI3Kα (E545K) (P42336 whole entry E545K): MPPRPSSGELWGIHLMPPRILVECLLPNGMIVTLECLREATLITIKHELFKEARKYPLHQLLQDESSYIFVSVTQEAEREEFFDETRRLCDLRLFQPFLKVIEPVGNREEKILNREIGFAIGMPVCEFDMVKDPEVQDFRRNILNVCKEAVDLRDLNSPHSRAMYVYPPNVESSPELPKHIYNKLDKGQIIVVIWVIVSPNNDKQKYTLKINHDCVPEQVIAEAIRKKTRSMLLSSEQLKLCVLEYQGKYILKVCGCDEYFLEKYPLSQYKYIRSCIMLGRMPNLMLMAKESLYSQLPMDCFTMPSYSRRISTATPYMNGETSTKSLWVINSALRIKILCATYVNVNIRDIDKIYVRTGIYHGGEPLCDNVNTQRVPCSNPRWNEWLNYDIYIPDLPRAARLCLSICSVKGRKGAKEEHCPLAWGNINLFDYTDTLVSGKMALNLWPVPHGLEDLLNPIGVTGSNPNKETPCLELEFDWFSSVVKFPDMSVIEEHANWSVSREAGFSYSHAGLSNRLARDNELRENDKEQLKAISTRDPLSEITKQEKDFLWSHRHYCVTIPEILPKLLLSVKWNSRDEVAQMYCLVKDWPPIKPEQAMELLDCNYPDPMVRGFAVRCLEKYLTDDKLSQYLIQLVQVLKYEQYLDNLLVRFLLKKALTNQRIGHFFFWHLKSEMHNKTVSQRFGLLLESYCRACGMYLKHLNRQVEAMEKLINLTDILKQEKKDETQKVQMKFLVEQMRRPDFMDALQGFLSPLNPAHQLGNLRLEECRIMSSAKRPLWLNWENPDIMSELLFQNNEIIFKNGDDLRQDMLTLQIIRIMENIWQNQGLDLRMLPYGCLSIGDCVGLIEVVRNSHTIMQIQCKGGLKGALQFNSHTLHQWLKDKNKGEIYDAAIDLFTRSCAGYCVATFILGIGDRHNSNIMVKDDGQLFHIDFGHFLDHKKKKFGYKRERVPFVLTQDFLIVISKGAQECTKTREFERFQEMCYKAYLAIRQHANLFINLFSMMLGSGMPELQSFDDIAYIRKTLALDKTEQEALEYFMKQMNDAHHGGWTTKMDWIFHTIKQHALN
Sequence of Mutant PI3Kα (E545K) (P27986 whole entry partner): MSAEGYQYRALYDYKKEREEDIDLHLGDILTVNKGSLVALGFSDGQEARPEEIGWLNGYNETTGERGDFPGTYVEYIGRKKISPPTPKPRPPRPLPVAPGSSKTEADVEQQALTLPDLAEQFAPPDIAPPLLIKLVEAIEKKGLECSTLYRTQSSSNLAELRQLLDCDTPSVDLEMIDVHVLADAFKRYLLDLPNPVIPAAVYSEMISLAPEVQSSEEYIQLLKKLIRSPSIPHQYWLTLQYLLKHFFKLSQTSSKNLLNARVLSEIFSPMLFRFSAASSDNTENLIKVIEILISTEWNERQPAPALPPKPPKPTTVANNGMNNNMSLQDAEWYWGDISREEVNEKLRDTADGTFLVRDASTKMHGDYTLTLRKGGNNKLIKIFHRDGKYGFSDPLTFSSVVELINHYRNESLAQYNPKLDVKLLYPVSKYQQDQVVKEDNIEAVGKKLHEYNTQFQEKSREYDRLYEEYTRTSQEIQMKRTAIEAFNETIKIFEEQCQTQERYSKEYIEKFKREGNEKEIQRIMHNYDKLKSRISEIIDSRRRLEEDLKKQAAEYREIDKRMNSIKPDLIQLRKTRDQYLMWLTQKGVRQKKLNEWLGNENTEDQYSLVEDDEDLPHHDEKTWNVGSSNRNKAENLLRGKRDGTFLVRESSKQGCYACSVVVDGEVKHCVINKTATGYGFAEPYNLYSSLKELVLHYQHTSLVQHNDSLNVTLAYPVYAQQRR
Description: The crystal form A of the compound represented by formula (I) has a strong inhibitory effect on both wild-type and mutant PI3Kα kinases. […] The crystal form A of the compound represented by formula (I) has excellent selectivity to the other three subtypes of PI3K, and its inhibitory activity against PI3Kα is 149/7.44/6.61 times higher than that of PI3Kβ/δ/γ, respectively. The specific experimental method was the same as experimental embodiment 8. […] The specific experimental method was the same as experimental embodiment 9.
(§1) The lipid kinase reaction was carried out in a suitable substrate and under ATP conditions, then the activity of the kinase was detected by ADP-Glo™ kit in two steps. Step 1: the kinase reaction was terminated, in which the residual ATP was completely removed and only ADP was retained; step 2: kinase detection reagent was added to convert ADP to ATP, accompanied by fluorescein/luciferase reaction. Finally, the fluorescence value output was converted into kinase activity.
(§2) Experimental Materials and Equipment:
(§3) 2) Kit: ADP-Glo™ lipid kinase and PIP2:3PS kit (Promega #V1792)
The reagent kit contains: 1 mM PIP2:3PS, 10× lipid dilution buffer, 1 M magnesium chloride, 10 mM ATP, 10 mM ADP, ADP-Glo reagent, detection buffer and detection substrate. […]
(§4) (16) Fluorescence values were measured on the Envision instrument.

[3] = target: T1, PI3Kα (Homo sapiens, UniProt P42336); assay: In vitro enzymatic activity test (ADP-Glo lipid kinase), PI3Kα wild type; assay type: biochemical; settings: wild-type PI3Kα kinase; read-out: Wild type PI3Kα IC50
T1 construct: purchased Millipore 14-602-K
T1 sequence (P42336 whole entry): as the sequence (P42336 whole entry E545K) above, with K545E counted along it
T1 sequence (P27986 whole entry partner): as the sequence (P27986 whole entry partner) above
Method: as §1, §2, §3
The reagent kit contains: 1 mM PIP2:3PS, 10× lipid dilution buffer, 1 M magnesium chloride, 10 mM ATP, 10 mM ADP, ADP-Glo reagent, detection buffer and detection substrate.
3) Reaction plate: OptiPlate-384, white and transparent (PerkinElmer #6007299)
1) 10× reaction buffer: 500 mM HEPES, pH 7.5, 500 mM NaCl, […]; BSA: 10% stock solution, self-made
2) Final test system conditions: 1× reaction system: 50 mM of HEPES, 50 mM of NaCl, 3 mM of MgCl2, 0.01% BSA (freshly prepared on the day of experiment), 1% DMSO (v/v)+/−compound
3) Reaction system: 3 μL of mixture of enzyme and substrate (1:1)+2 μL of ATP/MgCl2 mixture+5 μL of ADP-Glo reagent+10 μL of detection reagent.
The specific experimental operations were as follows: […]
as §4

Classification for hygroscopicity [1]: slightly hygroscopic (2% > ΔW% ≥ 0.2%) | ΔW, hygroscopical weight gain [1]: 0.885% | IC50 [2]: 1.13 nM | IC50 [3]: 1.8 nM
Structure (SMILES): CNC(=O)[C@H](C)Cn1cnc2ccc(-c3cnc(OC)c(NS(=O)(=O)c4ccc(F)cc4F)c3)cc2c1=O
